The format of this data set is in vivo, Sprague-Dawley rats. The settings on record: mean of three rats, liver. On the procedure: The configurational stereoisomers of flocoumafen are separated by high-pressure liquid chromatography using a LUX® Cellulose-4 chiral column (00F-4490-B0, Phenomenex, Le Pecq, France) as stationary phase and a mixture formed from acetonitrile (A) and water comprising 0.1% by volume of formic acid (B), with an A/B volume ratio of 92/8, as mobile phase with a flow rate of the liquid mobile phase in the chromatography column of 0.25 mL/minute. 1 μL of extract comprising flocoumafen at a concentration of 1 μg/mL of acetonitrile is injected. Detection is performed by tandem mass spectrometry (MS/MS) in negative electrospray ionization (ESI) mode. The temperature of the nebulizer gas is 350° C. and its flow rate is 8 L/minute. The pressure of the nebulizer gas is brought to 2700 hPa. In particular, the MRM (“Multiple Reaction Monitoring”) transitions m/z 541.1→382.1 and m/z 541.1→161, corresponding to the flocoumafen signal, are analysed.
Extraction of Flocoumafen from the Liver of Rats Tube-Fed with Flocoumafen
About 0.525 g (±0.025 g) of rat liver is weighed out accurately and placed in a 50 mL polypropylene tube. 10 mL of acetone are added and the suspension is homogenized using an Ultra-Turrax® homogenizer/disperser for a time of about 30 seconds. The homogenizer/disperser shaft is rinsed with hot water and then twice with 20 mL of acetone in a polypropylene tube. The homogenate is centrifuged for 5 minutes at a centrifugation speed of 3000 rpm (revolutions per minute). The supernatant is collected and transferred into a test tube. The sample is subjected to evaporation under a stream of nitrogen (N2) at a temperature of 40° C. so as to form a dry extract.
1 mL of acetonitrile is added to the tube containing the dry extract so as to dissolve it. The acetonitrile solution is washed twice successively with 1 mL of hexane. The lipid-free extract is dried under a stream of nitrogen (N2) at a temperature of 40° C. and is then taken up in 0.5 mL of methanol and dissolved by vortex stirring. 0.5 mL of ultra-pure (Milli-Q) water is then added. The sample is vortex-homogenized.
1 mL of dichloromethane (CH2Ct2), then 1 mL of methanol (CH3OH), then 1 mL of ultra-pure (Milli-Q) water are passed through an Oasis HLB 1 cc cartridge (WAT094225, Waters). The lipid-free liver extract (1 mL MeOH/Milli-Q H2O) containing flocoumafen is then loaded onto the top of the cartridge beforehand. The liver extract penetrates through the cartridge by gravity on contact with the solid phase of the cartridge. 1 mL of washing solution formed from methanol (CH3OH) and ultra-pure water (H2O) in a 90/10 volume proportion is loaded onto the top of the cartridge. The cartridge is dried by suction under vacuum connected to the bottom of the cartridge. 1 mL of eluting solution formed from dichloromethane (CH2Cl2) and methanol (CH3OH) in a 90/10 volume proportion is then loaded onto the top of the cartridge and an eluate comprising flocoumafen is collected at the bottom of the cartridge. The solvent of the eluate is evaporated off under a stream of nitrogen (N2) at a temperature of 40° C. The sample is taken up in 0.5 mL of acetonitrile (NC—CH3) and the acetonitrile solution containing flocoumafen is filtered through a 0.2 μm porosity filter.
Hepatic Persistence of the Configurational Stereoisomers (E1, E2, E3 and E4) of Flocoumafen in Rats
A solution comprising flocoumafen in a mixture of vegetable oil and 5% of DMSO so that the amount of flocoumafen ingested by each rat is about 2.3 mg per kilogram of rat is administered orally (per os) to 8-week-old male and female laboratory rats (Sprague-Dawley rats, Charles River, Saint-Germain-sur-l'Arbresle, France) weighing between 180 and 200 g. The tube-fed rats are treated daily by subcutaneous administration of a dose of vitamin K1 at a rate of 1 U per rat so as to keep the rats alive throughout the experiment. […]

Setting [1] is: female rats, D+1 after oral tube-feeding of flocoumafen about 2.3 mg/kg (mixture of 4 stereoisomers).
Where [2] appears, read: female rats, D+3 after oral tube-feeding of flocoumafen about 2.3 mg/kg (mixture of 4 stereoisomers).
The mark [3] stands for this setting: female rats, D+7 after oral tube-feeding of flocoumafen about 2.3 mg/kg (mixture of 4 stereoisomers).
[4] abbreviates: male rats, D+1 after oral tube-feeding of flocoumafen about 2.3 mg/kg (mixture of 4 stereoisomers).
Where [5] appears, read: male rats, D+3 after oral tube-feeding of flocoumafen about 2.3 mg/kg (mixture of 4 stereoisomers).
The mark [6] stands for this setting: male rats, D+7 after oral tube-feeding of flocoumafen about 2.3 mg/kg (mixture of 4 stereoisomers).

Each structure is given as a SMILES string. Where two headings read alike, the source gives them in different places.

With `O=c1oc2ccccc2c(O)c1C1CC(c2ccc(OCc3ccc(C(F)(F)F)cc3)cc2)Cc2ccccc21` (single isomer, unassigned) [Enantiomer E1, flocoumafen], the Hepatic concentration amounted to 4585 ng/g under setting [1]; 2692 ng/g under setting [2]; 1196 ng/g under setting [3]; 196 ng/g under setting [4]; 47 ng/g under setting [5]; 0 ng/g under setting [6].

Regarding `O=c1oc2ccccc2c(O)c1C1CC(c2ccc(OCc3ccc(C(F)(F)F)cc3)cc2)Cc2ccccc21` (single isomer, unassigned) [Enantiomer E3, flocoumafen], the Hepatic concentration runs as follows: under setting [1], 5478 ng/g; under setting [2], 2734 ng/g; under setting [3], 1228 ng/g; under setting [4], 3301 ng/g; under setting [5], 1862 ng/g; under setting [6], 647 ng/g.

Regarding `O=c1oc2ccccc2c(O)c1C1CC(c2ccc(OCc3ccc(C(F)(F)F)cc3)cc2)Cc2ccccc21` (single isomer, unassigned) [Enantiomer E2, flocoumafen], the Hepatic concentration is, setting by setting: under setting [1], 5396 ng/g; under setting [2], 2522 ng/g; under setting [3], 469 ng/g; under setting [4], 3904 ng/g; under setting [5], 1962 ng/g; under setting [6], 319 ng/g.

For `O=c1oc2ccccc2c(O)c1C1CC(c2ccc(OCc3ccc(C(F)(F)F)cc3)cc2)Cc2ccccc21` (single isomer, unassigned) [Enantiomer E4, flocoumafen], the Hepatic concentration runs as follows: under setting [1], 10342 ng/g; under setting [2], 7765 ng/g; under setting [3], 5054 ng/g; under setting [4], 8143 ng/g; under setting [5], 9906 ng/g; under setting [6], 2623 ng/g.

Source of the values: US10654822B2, “Composition and rodenticidal bait comprising flocoumafen, and process for controlling target rodent pests” (priority 2015, dated 2020).
